Columns and labels:
PTP1B [1] = biological target: T1, PTP1B (Homo sapiens, UniProt P18031); test: PTP1B inhibition assay (pNPP colorimetric method); type: biochemical; set-up: purchased Abcam (Shanghai) Trading Co., Ltd. ab51277; details: for IC50: pNPP substrate, 37 °C 30 min, means ± SD of three replications; for PTP1B inhibitory activity (in words): pNPP method, compared with positive control NaVO4
T1 sequence (P18031 1-435): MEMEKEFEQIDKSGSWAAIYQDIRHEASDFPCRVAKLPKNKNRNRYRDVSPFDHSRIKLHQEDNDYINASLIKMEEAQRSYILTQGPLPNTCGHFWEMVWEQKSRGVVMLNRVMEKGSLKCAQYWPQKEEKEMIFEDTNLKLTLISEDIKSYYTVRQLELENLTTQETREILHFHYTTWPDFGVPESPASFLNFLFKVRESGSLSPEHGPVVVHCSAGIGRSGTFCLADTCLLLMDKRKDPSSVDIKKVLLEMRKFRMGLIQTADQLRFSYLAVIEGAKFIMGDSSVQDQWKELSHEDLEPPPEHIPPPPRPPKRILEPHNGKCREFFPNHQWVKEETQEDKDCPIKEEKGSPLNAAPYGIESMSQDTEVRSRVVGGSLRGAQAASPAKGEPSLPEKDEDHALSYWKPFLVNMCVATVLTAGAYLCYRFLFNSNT
Protocol: In the separation process, the column chromatography as performed by silica-gel (100–200 and 300–400 mesh, Qingdao Marine Chemical Co., Qingdao, China), and Sephadex LH-20 (GE Healthcare, Marlborough, MA). The TLC detection was carried by heating a silica gel plate (Qingdao Marine Chemical Co., Qingdao, China) spayed with 10% H2SO4 in ethanol. The 1D and 2D NMR spectra were recorded on a Varian INOVA AS 400 instrument (Agilent, Santa Clara, USA) with TMS as the internal standard. The chemical shift was shown in ppm while coupling constant J in Hz. Deuterated solvent ([…]) was purchased from Sigma Aldrich for NMR analysis. HR-ESI-MS data were collected by a UPLC–Q/TOF-MS system including a 1290 Infinity II UPLC system (Agilent, USA) and an Agilent 6545 Q/TOF-MS system (Agilent, MA, USA). Optical rotations were measured by a JASCO P-1020 polarimeter (Kyoto, Japan). The single crystal X-ray diffraction data were obtained by a SuperNova, Dual, Cu at zero, AtlasS2 diffractometer (Rigaku, Japan). Besides, other analytical grade chemical solvent was obtained from Jinhuada Chemical Co., ltd. Guangzhou, P.R. China. Recombinant human PTP1B protein (ab51277) was purchased from Abcam (Shanghai) Trading Co., Ltd. All chemical reagents used in the enzymatic assays were produced by Laibo Chemicals Industries, Ltd.
The enzymatic assays of protein tyrosine phosphatase 1B (PTP1B) were referred. The PTP1B inhibitory activities of test compounds were examined in 96-well plates using the colorimetric method. […] The reaction system was 100 μL: MOPS (25 mM, pH = 7.0), DTT (2 mM), EDTA (1 mM, pH = 7.0), NaCl (0.1 M), PTP 1B (25 nM), and disodium-4-nitrophenyl phosphate (pNPP, 2 mM), and the enzyme-catalysed reaction was terminated by the addition of 1.0 M NaOH after incubation at 37 °C for 30 min. The inhibition efficiency of the compounds on the enzymatic activity of PTP1B was assayed by detecting the amount of the hydrolysed product, p-nitrophenol (p-NP) at 405 nm using a microplate reader. The PTP1B inhibition activity was expressed as inhibition (%) and was calculated as Equation (1): (1) Inhibition (%)=(1−ΔAsample/ΔAcontrol)×100%

PTP1B [2] = biological target: T1, PTP1B; test: PTP1B inhibition kinetic assay (Lineweaver-Burk and Dixon plots); type: biochemical; details: for Ki: Dixon plot method, means ± SD of three replications; for type of inhibition against PTP1B: Lineweaver-Burk double reciprocal plot
Protocol: The kinetic behaviour of the active compounds against PTP1B and the corresponding inhibition constants (Ki values) were investigated using Lineweaver-Burk double reciprocal plots and Dixon plots. Different concentrations of p-NPP substrates (1, 2, 5 and 10 mM) were subjected to enzymatic reactions with various concentrations of active compounds (0, 0.5, 1.0 and 5.0 μM for 18) and 100 nM PTP1B in 96-well plates. The absorbance of the reaction mixture was recorded every 3 min by a plate reader. The enzymatic velocity of the enzyme reaction was calculated based on the time-Δabs plot. All assays were performed in triplicate.

CC1(C)CCC=C(C(=O)C2CCC3(C)C2CCC2C4=C(CCC23C)C(C)(C)C2CCC4O2)O1 (stereo not shown) [Compound 1, Gypensapogenin I]
IC50 (PTP1B [1]): 20.3 ± 2.49 µM

CC(C)=C1CC([C@H]2CC[C@]3(C)[C@@H]2CCC2[C@@]4(C)CC[C@H](O)C(C)(C)C4CC[C@]23C)=CC1=O (stereo partly shown) [Compound 2, Gypensapogenin II]
PTP1B inhibitory activity (in words) (PTP1B [1]): more inhibitory activity against PTP1B than the positive control
IC50 (PTP1B [1]): 10.5 ± 1.07 µM

CC(C)=CCC[C@@](O)(C(=O)O)[C@H]1CC[C@]2(C)[C@@H]1CCC1[C@@]3(C)CC[C@H](O)C(C)(C)C3CC[C@]12C (stereo partly shown) [Compound 3, Gypensapogenin III]
Ki (PTP1B [2]): 1.16 ± 0.47 µM
type of inhibition against PTP1B (PTP1B [2]): competitive inhibitors
PTP1B inhibitory activity (in words) (PTP1B [1]): more inhibitory activity against PTP1B than the positive control
IC50 (PTP1B [1]): 2.34 ± 0.24 µM

CC(C)(O)CC(=O)CC(C(=O)O)[C@H]1CC[C@]2(C)[C@@H]1CCC1[C@@]3(C)CC[C@H](O)C(C)(C)C3CC[C@]12C (stereo partly shown) [Compound 4, Gypensapogenin IV]
Ki (PTP1B [2]): 2.44 ± 0.09 µM
type of inhibition against PTP1B (PTP1B [2]): competitive inhibitors
PTP1B inhibitory activity (in words) (PTP1B [1]): more inhibitory activity against PTP1B than the positive control
IC50 (PTP1B [1]): 4.26 ± 0.42 µM

CC(C)=CC(=O)CC(C(=O)O)[C@H]1CC[C@]2(C)[C@@H]1CCC1[C@@]3(C)CC[C@H](O)C(C)(C)C3CC[C@]12C (stereo partly shown) [Compound 5, Gypensapogenin V]
IC50 (PTP1B [1]): 33.9 ± 0.83 µM

CC(C)=C1CC=C([C@H]2CC[C@]3(C)[C@@H]2CC[C@@H]2C4=C(CC[C@]23C)C(C)(C)[C@@H]2CC[C@H]4O2)C1=O [Compound 6, Gypensapogenin A]
IC50 (PTP1B [1]): 19.6 ± 1.48 µM

CC(C)=C1CC([C@H]2CC[C@]3(C)[C@@H]2CC[C@@H]2C4=C(CC[C@]23C)C(C)(C)[C@@H]2CC[C@H]4O2)=CC1=O [Compound 7, Gypensapogenin B]
IC50 (PTP1B [1]): 29.4 ± 2.48 µM

CC(C)=C1CC=C([C@H]2CC[C@]3(C)[C@@H]2CC[C@@H]2[C@@]4(C)CC[C@H](O)C(C)(C)[C@@H]4CC[C@]23C)C1=O [Compound 8, Gypensapogenin C]
IC50 (PTP1B [1]): 24.6 ± 2.28 µM

CC(C)=C[C@H]1C=C([C@H]2CC[C@]3(C)[C@@H]2CC[C@@H]2[C@@]4(C)CC[C@H](O)C(C)(C)[C@@H]4CC[C@]23C)C(=O)O1 [Compound 9, Gypensapogenin D]
Ki (PTP1B [2]): 5.58 ± 0.7 µM
type of inhibition against PTP1B (PTP1B [2]): competitive inhibitors
PTP1B inhibitory activity (in words) (PTP1B [1]): more inhibitory activity against PTP1B than the positive control
IC50 (PTP1B [1]): 7.77 ± 0.85 µM

Source: article PMC10653776, “New dammarane-type triterpenoids from hydrolyzate of total Gynostemma pentaphyllum saponins with protein tyrosine phosphatase 1B inhibitory activity” (Journal of Enzyme Inhibition and Medicinal Chemistry, 2023)
